Where two headings read alike, the source gives them in different places.
System: HeLa cells
Assay: HeLa cell viability (PrestoBlue) assay, 72 h
Format: cell-based, human
Conditions: for GI50 FK866 with carbazole/GI50 FK866 / GI50 PTX/GI50 PTX with carbazole: ratio at the highest noncytotoxic dose of carbazole analog; for GI50 FK866 with carbazole/GI50 FK866: readout of NAMPT activation; for GI50 PTX/GI50 PTX with carbazole: synergy with PTX; for fold reduction of GI50 by addition of 12 μM Carba1: drug with 12 μM Carba1 vs drug alone
Procedure: The human HeLa cell line was tested negative for mycoplasma contamination. HeLa cells were grown in RPMI 1640 medium supplemented with penicillin/streptomycin (100 μg/ml) and 10% FBS and maintained in a humidified incubator at 37°C and 5% CO2.
Cell viability was analyzed using the colorimetric PrestoBlue assay. Cells were seeded in 96-well microplates at a density of 7500 cells per well, allowed to adhere for 24 hours, and treated for 72 hours with either DMSO or drugs at indicated concentrations. PrestoBlue (10 μl) was then added to each well, followed by a 30-min incubation. Fluorescence was measured using a FLUOstar Optima microplate reader (excitation, 544 nm; emission, 580 nm; BMG Labtech).

[1] = cell viability, compound alone, read-out: GI50
[2] = Homo sapiens, HeLa cells, 72 h, PrestoBlue, drug applied alone, read-out: GI50, drug alone

Structure (SMILES)	GI50 (HeLa cells, 72 h, PrestoBlue, drug applied alone, read-out: GI50, drug alone) [µM]	GI50 [1] [µM]	GI50 FK866 with carbazole/GI50 FK866	GI50 PTX/GI50 PTX with carbazole	fold reduction of GI50 by addition of 12 μM Carba1 (HeLa cells, 72 h) [fold]	GI50 [2] [µM]
N.N.[Cl][Pt][Cl] [Cis, cisplatin, reference compound]	0.167 ± 0.0308					
Cc1cc(-n2cccc2)c(C)c2c1[nH]c1ccc(Br)cc12 [Compound 2]		16	2	1.6		
CCc1cccc2c1[nH]c1c(C)cc(-n3cccc3)c(C)c12 [Compound 3]		> 25	1.5	1.5		
Cc1cc(-n2cccc2)c(C)c2c1[nH]c1cc(Cl)ccc12 [Compound 4]		15	0.93	1.8		
Cc1cc(-n2ccc(CN(C)C)c2)c(C)c2c1[nH]c1ccc(Cl)cc12 [Compound 6]		12.7	1	0.8		
CCNCc1ccn(-c2cc(C)c3[nH]c4ccc(Cl)cc4c3c2C)c1 [Compound 7]		10.3	1	0.77		
Cc1cc(-n2ccc(CO)c2)c(C)c2c1[nH]c1ccc(Cl)cc12 [Compound 8]		1	1	3.8		
Cc1cc(-n2c(C)ccc2C)c(C)c2c1[nH]c1ccc(Br)cc12 [Compound 9]		> 25	0.99	1		
CCOC(=O)Oc1ccc2[nH]c3c(C)cc(-n4cccc4)c(C)c3c2c1 [Compound 10]		25	1.1	1.7		
Cc1cc(-n2cccc2)c(C)c2c1[nH]c1ccc(O)cc12 [Compound 11]		> 25	1.3	1.5		
Cc1cc(-n2c(C)ccc2C)c(C)c2c1[nH]c1ccc(Cl)cc12 [Compound 12]		14	1.09	0.9		
Cc1cc(-n2ccc(C=O)c2)c(C)c2c1[nH]c1ccc(Cl)cc12 [Compound 13]		1	1	4.4		
Cc1cc(-n2ccc(C=O)c2)c(C)c2c1[nH]c1ccc(Br)cc12 [Compound 14]		1.2	1	2.5		
CCOC(=O)Oc1ccc2[nH]c3c(C)cc(-n4c(C)ccc4C)c(C)c3c2c1 [Compound 15]		> 25	1.1	1		
COc1cccc(NCC(F)Cn2c3ccc(Cl)cc3c3c(C)c(-n4cccc4)cc(C)c32)c1 (centres unmarked) [Compound 16]		> 25	0.98	1.2		
CC(=O)O[C@@]12CO[C@@H]1C[C@H](O)[C@@]1(C)C(=O)[C@H](O)C3=C(C)[C@@H](OC(=O)[C@H](O)[C@@H](NC(=O)OC(C)(C)C)c4ccccc4)C[C@@](O)([C@@H](OC(=O)c4ccccc4)[C@H]21)C3(C)C [DTX, docetaxel, reference compound]					3.8	0.0011 ± 0.0002
C/C(=C\c1csc(C)n1)[C@@H]1C[C@@H]2O[C@]2(C)CCC[C@H](C)[C@H](O)[C@@H](C)C(=O)C(C)(C)[C@@H](O)CC(=O)O1 [Epo-B, epothilone-B, reference compound]					4.4	0.0005 ± 3e-05

From paper PMC12571071, “Preventing neuropathy and improving anticancer chemotherapy with a carbazole-based compound” (Science Advances, 2025)
